Reference: US7772252B2, “Heterocyclic substituted carbonyl derivatives and their use as dopamine D3 receptor ligands” (Aventis Pharmaceuticals Inc., priority 2001, dated 2010)

The molecules below were run against T1, cloned human dopamine D3 receptors (Homo sapiens, UniProt P35462) (assay: [N-Methyl-3H]Spiroperidol binding to cloned human dopamine D3 receptors). Conditions: read-out: D3 Ki.
T1 construct: expressed in transfected cells; membrane homogenate
How it was run: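 Stably transfected CHO cells expressing cloned human D3 receptor were used as membranes homogenized in 10% DMSO. Ligand was [N-methyl-3H]spiroperidol displacement.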

T1 sequence (P35462 whole entry): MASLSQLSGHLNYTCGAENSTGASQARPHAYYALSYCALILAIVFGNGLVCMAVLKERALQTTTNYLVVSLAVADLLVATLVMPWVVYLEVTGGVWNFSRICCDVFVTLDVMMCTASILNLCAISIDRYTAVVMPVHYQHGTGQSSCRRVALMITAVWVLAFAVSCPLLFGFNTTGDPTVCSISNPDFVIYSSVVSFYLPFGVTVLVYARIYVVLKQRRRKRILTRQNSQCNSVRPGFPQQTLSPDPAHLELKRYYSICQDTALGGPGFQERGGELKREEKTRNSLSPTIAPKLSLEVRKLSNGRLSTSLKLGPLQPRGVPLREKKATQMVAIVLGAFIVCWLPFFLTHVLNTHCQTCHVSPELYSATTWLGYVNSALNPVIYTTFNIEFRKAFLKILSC

Point of comparison: `COc1ccc(C2=CCN(C(=O)C3CC3CN3CCC(c4noc5ccsc45)CC3)CC2)cc1` (racemic) [compound 831599], Ki 0.0498 µM. Against it:
- O=C(NCCCN1CCOCC1)[C@@H]1C[C@H]1CN1CCN(c2csc3cc(C(F)(F)F)ccc23)CC1 [compound 831492] — 120-fold lower, 0.000432 µM
- O=C(CCCN1CCN(c2noc3ccsc23)CC1)N1CCC(n2ccnc2)CC1 [compound 832212] — 6.1-fold higher, 0.302 µM
- O=C([C@@H]1C[C@H]1CN1CCC(c2noc3ccsc23)CC1)N1CCC(c2nc3ccccc3s2)CC1 [compound 832527] — within 1.5-fold, 0.0454 µM
- O=C([C@@H]1C[C@H]1CN1CCN(c2nc3cccc4c3n2CCC4)CC1)N1CCC[C@@H](Cn2ccnc2)C1 [A002438663] — 36-fold lower, 0.00137 µM
- O=C([C@@H]1C[C@H]1CN1CCC(c2noc3ccsc23)CC1)N1CCN(c2ccc(F)cc2)CC1 [compound 829465] — 1.6-fold higher, 0.0803 µM
- Cc1cccc(CN2CCN(C(=O)C3CC3CN3CCC(c4noc5ccsc45)CC3)CC2)c1 (racemic) [compound 832158] — 130-fold lower, 0.00037 µM
- CCN(CC)C(=O)C1CCN(C(=O)C2CC2CN2CCC(c3noc4ccsc34)CC2)CC1 (racemic) [compound 831738] — 4.5-fold higher, 0.223 µM
- O=C(NCCCc1cc[nH]c1)C1CC1CN1CCC(c2noc3ccsc23)CC1 (racemic) [compound 832192] — 6.4-fold lower, 0.00781 µM
- O=C(NC1CCN(Cc2ccccc2Cl)CC1)C1CC1CN1CCC(c2noc3ccsc23)CC1 (racemic) [compound 831996] — 6.2-fold lower, 0.00797 µM
- O=C(NCCOc1ccccc1)[C@@H]1C[C@H]1CN1CCC(c2noc3ccsc23)CC1 [compound 831343] — 3.6-fold lower, 0.0137 µM
- O=C(NC1CCN(Cc2cc(F)ccc2F)CC1)[C@@H]1C[C@H]1CN1CCC(c2noc3ccsc23)CC1 [compound 833168] — 16-fold lower, 0.00311 µM
- O=C(N[C@H]1CC[C@H](O)CC1)C1(CCN2CCC(c3noc4ccsc34)CC2)CC1 [compound 832317] — 19-fold higher, 0.943 µM
- Cc1cc(NC(=O)C2CC2CN2CCC(c3noc4ccsc34)CC2)sn1 (racemic) [compound 829463] — 10-fold lower, 0.00476 µM
- O=C(N[C@H]1CC[C@H](O)CC1)C1(CCN2CCN(c3csc4cc(C(F)(F)F)ccc34)CC2)CC1 [compound 832520] — 2.8-fold higher, 0.141 µM
- COc1c(F)ccc2c(C3CCN(CCC4(C(=O)NCCCn5ccnc5)CC4)CC3)noc12 [compound 833378] — 2.1-fold lower, 0.0237 µM
- CC1CCC(NC(=O)C2CC2CN2CCC(n3c(=O)[nH]c4ccccc43)CC2)CC1 (racemic) [compound 827211] — 7.1-fold higher, 0.353 µM
- O=C(C1CC1CN1CCC(c2noc3ccsc23)CC1)N1CCC(c2ccccc2)C1 (racemic) [compound 831602] — 2.5-fold lower, 0.0196 µM
- O=C(NC1CCN(C(=O)c2ccc(Cl)s2)CC1)C1CC1CN1CCC(c2noc3ccsc23)CC1 (racemic) [compound 832487] — within 1.5-fold, 0.0661 µM
- CN1CCN(CCCNC(=O)[C@@H]2C[C@H]2CN2CCC(c3noc4c(C(F)(F)F)cccc34)CC2)CC1 [A002438639] — 2-fold higher, 0.0973 µM
- Cn1nc(N2CCN(CCCC(=O)N[C@H]3CC[C@H](C)CC3)CC2)c2sccc21 [A002201941] — 2.4-fold higher, 0.119 µM
- COc1cccc2c(C3CCN(C[C@@H]4C[C@H]4C(=O)NCCCc4cccnc4)CC3)noc12 [compound 832104] — 12-fold higher, 0.62 µM
- Cn1nc(N2CCN(C[C@@H]3C[C@H]3C(=O)N[C@H]3CC[C@H](O)CC3)CC2)c2sccc21 [8319560A] — 8.4-fold lower, 0.00591 µM
- O=C([C@@H]1C[C@H]1CN1CCN(c2csc3cc(C(F)(F)F)ccc23)CC1)N1CCN(CCO)CC1 [compound 832735] — within 1.5-fold, 0.0368 µM
- O=C(NCCCN1CCCCC1)[C@@H]1C[C@H]1CN1CCC(c2csc3c(C(F)(F)F)cccc23)CC1 [compound 833686] — 6.9-fold lower, 0.00722 µM
- O=C(NCCc1cccc(C(F)(F)F)c1)C1CC1CN1CCC(c2noc3ccsc23)CC1 (racemic) [compound 832047] — 1.9-fold lower, 0.0258 µM
- C[C@H]1CC[C@H](NC(=O)[C@@H]2C[C@H]2CN2CCC(c3n[nH]c4cc(Br)ccc34)CC2)CC1 [compound 833694] — within 1.5-fold, 0.0469 µM

Same assay, conditions: read-out: d3Ki

`CC1(C)CCCN(C(=O)CCCN2CCN(c3csc4cc(C(F)(F)F)ccc34)CC2)C1` [compound 826817] was tested, and the Ki was 0.02 µM.
